Test results taken from patent US5854280A, “Antifungal sordaridin derivatives” (Glaxo Wellcome S.A., priority 1994, dated 1998).
Values after ≈ are worked out from the molar mass of the structure shown.

Key:
[1] = acute oral toxicity (LD50); type: in vivo; details: male mice
Experimental: (§1) The compounds of the invention are essentially non-toxic at therapeutically useful levels. […] The LD50 value for the compound of example 8, in male mice is >1000 mg/kg po.

[2] = system: C. albicans 4711E; assay: protection of mice infected with C. albicans; type: in vivo, male mice infected with C. albicans 4711E; details: 50 mg/kg po
Source text: The in vivo evaluation of compounds of formula (I) can be carried out at a series of dose levels by administration (e.g. subcutaneously, orally, intraperitoneally or intravenously) to mice or rats inoculated with a strain of Candida albicans. Untreated animals die within 3 to 9 days and the dose level at which the test compound provides 50% protection against the lethal effect of the infection is noted.
as §1

[3] = system: C. tropicalis 2808E; assay: in vitro antifungal MIC, two-fold serial dilution; type: cell-based, Candida tropicalis
Experimental: (§2) The in vitro evaluation of the anti-fungal activity of compounds of the invention was performed on liquid or solid medium by the anti-fungal two-fold serial dilution technique of determining the minimum inhibitory concentration (MIC) of anti-fungal agent that inhibited development of growth after 24 to 48 hours of incubation at 37° C. In practice, a series of agar plates or broth microdilution panels containing two-fold dilutions of anti-fungal agent tested were inoculated with a standard culture of a clinically relevant pathogen, for example, Candida albicans. The agar plates or broth microdulution panels were then examined for the presence or absence of growth of the fungus and the appropriate MIC values were noted.
(§3) Compounds of formula (I) have been tested for anti fungal activity in a standard in vitro screen and the minimum inhibiting concentration (MIC; μg/ml) determined for each compound against a variety of clinically relevant pathogens.

[4] = system: C. glabrata 2376E; assay: in vitro antifungal MIC, two-fold serial dilution; type: cell-based, Candida glabrata
Experimental: as §2, §3

[5] = system: C. glabrata 2375E; assay: in vitro antifungal MIC, two-fold serial dilution; type: cell-based, Candida glabrata
Experimental: as §2, §3

[6] = system: C. albicans 2005E; assay: in vitro antifungal MIC, two-fold serial dilution; type: cell-based, Candida albicans
Experimental: as §2, §3

[7] = system: C. albicans 4711; assay: in vitro antifungal MIC, two-fold serial dilution; type: cell-based, Candida albicans
Experimental: as §2, §3

[8] = system: C. albicans 1208E; assay: in vitro antifungal MIC, two-fold serial dilution; type: cell-based, Candida albicans
Experimental: as §2, §3

[9] = system: C. aibicans 2402E; assay: in vitro antifungal MIC, two-fold serial dilution; type: cell-based, Candida albicans
Experimental: as §2, §3

[10] = system: C. neoformans 2867E; assay: in vitro antifungal MIC, two-fold serial dilution; type: cell-based, Cryptococcus neoformans
Experimental: as §2, §3

[11] = system: C. psuedotropicalis 2371E; assay: in vitro antifungal MIC, two-fold serial dilution; type: cell-based, Candida pseudotropicalis
Experimental: as §2, §3

[12] = system: battery of fungal organisms; details: tested against a battery of fungal organisms; cited from earlier work
[13] = British Patent 1,162,027 / Japanese application J6 2040292A; cited from earlier work

SMILES | MIC (minimum inhibiting concentration) [3] [µg/mL] | MIC (minimum inhibiting concentration) [4] [µg/mL] | MIC (minimum inhibiting concentration) [5] [µg/mL] | MIC (minimum inhibiting concentration) [6] [µg/mL] | MIC (minimum inhibiting concentration) [7] [µg/mL] | MIC (minimum inhibiting concentration) [8] [µg/mL] | MIC (minimum inhibiting concentration) [9] [µg/mL] | MIC (minimum inhibiting concentration) [10] [µg/mL] | MIC (minimum inhibiting concentration) [11] [µg/mL] | LD50 [1] [mg/kg] | activity in protecting male mice infected with C. albicans 4711E [2] | antifungal activity [12] | spectrum of action [12] | reported activity [13]
CC(C)C1=CC2CC3(C=O)C4CCC(C)C4CC2(COC2CC4OC(C)(C)OC4C(C)O2)C13C(=O)[O-].[Na+] [Example 8, [1R-(1α,3aβ,4β,4aβ,7β,7aα,8aβ)]8a-[(2,6-Dideoxy-3,4-O-isopropylidene-β-D-allopyranosyloxy)methyl]-4-formyl-4,4a,5,6,7,7a,8,8a-octahydro-7-methyl-3-(1-methylethyl)-1,4-methano-s-indacene-3a(1H)-carboxylic acid, sodium salt] | – | – | – | – | – | – | – | – | – | > 1000 | active in protecting male mice | – | – | –
CO[C@H]1[C@@H](O)[C@H](O)[C@H](OC[C@@]23C[C@@H]4[C@H](C)CC[C@H]4[C@@]4(C=O)CC2C=C(C(C)C)[C@@]34C(=O)O)O[C@@H]1C [sordarin] | – | – | – | – | – | – | – | – | – | – | – | only moderately active | limited spectra of action | fungistatic activity
C/C=C/C=C\C(=O)O[C@H]1[C@H](O)[C@H](OCC23C[C@@H]4[C@H](C)CC[C@H]4C4(C=O)CC2C=C(C(C)C)C34C(=O)O)O[C@H](C)[C@H]1OC (some centres unmarked) [zofimarin] | – | – | – | – | – | – | – | – | – | – | – | only moderately active | limited spectra of action | antifungal activity

Second part, led by results:

MIC (minimum inhibiting concentration) [3] [µg/mL] | MIC (minimum inhibiting concentration) [4] [µg/mL] | MIC (minimum inhibiting concentration) [5] [µg/mL] | MIC (minimum inhibiting concentration) [6] [µg/mL] | MIC (minimum inhibiting concentration) [7] [µg/mL] | MIC (minimum inhibiting concentration) [8] [µg/mL] | MIC (minimum inhibiting concentration) [9] [µg/mL] | MIC (minimum inhibiting concentration) [10] [µg/mL] | MIC (minimum inhibiting concentration) [11] [µg/mL] | SMILES | LD50 [1] [mg/kg] | activity in protecting male mice infected with C. albicans 4711E [2] | antifungal activity [12] | spectrum of action [12] | reported activity [13]
≤ 0.001 | 8.00 (≈ 14.5 µM) | 8.00 (≈ 14.5 µM) | ≤ 0.001 | ≤ 0.001 | ≤ 0.001 | ≤ 0.001 | 2.00 (≈ 3.63 µM) | 0.01 (≈ 0.0182 µM) | CC(C)C1=CC2CC3(C=O)C4CCC(C)C4CC2(COC2OC(C)C(OCc4ccccc4)C4OC24)C13C(=O)O [Example 54, [1R-(1α,3aβ,4β,4aβ,7β,7aα,8aβ)]8a-[(2,3-Anhydro-4-O-benzyl-6-deoxy-β-D-mannopyranosyloxy)methyl]-4-formyl-4,4a,5,6,7,7a,8,8a-octahydro-7-methyl-3-(1-methylethyl)-1,4-methano-s-indacene-3a(1H)-carboxylic acid] | – | – | – | – | –
0.015 (≈ 0.0283 µM) | 16.0 (≈ 30.2 µM) | 16.0 (≈ 30.2 µM) | ≤ 0.001 | 0.002 (≈ 0.00377 µM) | 0.015 (≈ 0.0283 µM) | 0.008 (≈ 0.0151 µM) | 1.00 (≈ 1.88 µM) | 0.015 (≈ 0.0283 µM) | CC(C)C(=O)OC1C(C)OC(OCC23CC4C(C)CCC4C4(C=O)CC2C=C(C(C)C)C43C(=O)O)C2OC12 [Example 59, [1R-(1α,3aβ,4β,4aβ,7β,7aα,8aβ)]8a-[(2,3-Anhydro-6-deoxy-4-O-(1-methylethyl)carbonyl-β-D-mannopyranosyloxy)methyl]-4-formyl-4,4a,5,6,7,7a,8,8a-octahydro-7-methyl-3-(1-methylethyl)-1,4-methano-s-indacene-3a(1H)-carboxylic acid] | – | – | – | – | –
0.250 (≈ 0.499 µM) | 31.00 (≈ 61.9 µM) | 31.00 (≈ 61.9 µM) | 0.060 (≈ 0.12 µM) | 0.030 (≈ 0.0599 µM) | 0.060 (≈ 0.12 µM) | 0.002 (≈ 0.00399 µM) | 1.00 (≈ 2 µM) | 0.015 (≈ 0.03 µM) | C=CCOC1C(C)OC(OCC23CC4C(C)CCC4C4(C=O)CC2C=C(C(C)C)C43C(=O)O)C2OC12 [Example 68, [1R-(1α,3aβ,4β,4aβ,7β,7aβ,8aβ)]8a-[(4-O-Allyl,2,3-anhydro,6deoxy-β-D-mannopyranosyl)oxy-methyl]-4-formyl-4,4a5,6,7,7a8,8a-octahydro-7-methyl-3-(1-methylethyl)-1,4-methano-s-indacene-3a(1H)-carboxylic acid] | – | – | – | – | –
